How the values were obtained:
HCC1806 [1] = assay: Induction of cell cycle arrest in human HCC1806 cells assessed as accumulation at G2/M phase at 200 nM after 48 hrs by propidium iodide staining based FACScan flow cytometry (reference value: 10.38%); assay type: functional
HCC1806 [2] = assay: Induction of cell cycle arrest in human HCC1806 cells assessed as accumulation at S phase at 50 nM after 48 hrs by propidium iodide staining based FACScan flow cytometry (reference value: 18.89%); assay type: functional
MDA-MB-453 = assay: Antiproliferative activity against human MDA-MB-453 cells after 72 hrs by MTT assay; assay type: functional, cell-based; conditions: MDA-MB-453, 72 h
HCC1806 [3] = assay: Induction of apoptosis in human HCC1806 cells assessed as early apoptotic cells at 100 uM after 48 hrs by Annexin V-FITC/propidium iodide double staining based flow cytometry (reference value: 2.16%); assay type: functional
HCC1806 [4] = assay: Induction of apoptosis in human HCC1806 cells assessed as late apoptotic cells at 200 uM after 48 hrs by Annexin V-FITC/propidium iodide double staining based flow cytometry (reference value: 0.81%); assay type: functional
[5] = Toxicity in ICR mouse assessed as induction of morphological changes in liver at 25 mg/kg, iv administered once per day for 23 consecutive days; assay type: organism-based; conditions: in vivo

## C=C1C(=O)[C@@]23C(=O)[C@@H]4OC[C@]5(C=CCC(C)(C)[C@@H]45)[C@@H]2CC[C@@H]1[C@H]3OC(=O)/C=C/c1ccncc1
HCC1806 [1]
  Activity: 24.28%
HCC1806 [2]
  Activity: 18.24%
MDA-MB-453
  IC50: 330 nM
HCC1806 [3]
  Activity: 26.78%
HCC1806 [4]
  Activity: 22.79%
[5]
  Activity: Non-Toxic
